Test results reported in patent US9994616B2, “c-Met protein agonist” (The University of Tokyo, priority 2013, dated 2018).
Where two headings read alike, the source gives them in different places. Where a SMILES comes first, the peptide text is derived from it. Bridges are numbered along the chain shown (N, C = ends). Where no end group is shown, it is not given here. [ ]: non-standard residue; d: D form. NMeR = CN[C@@H](CCCNC(=N)N)C(=O)O; NMeF = CN[C@@H](Cc1ccccc1)C(=O)O; NMeT = CN[C@H](C(=O)O)[C@@H](C)O; NMeN = CN[C@@H](CC(N)=O)C(=O)O; NMeC = CN[C@@H](CS)C(=O)O

What was measured:
[1] = Stability of thioether macrocyclic peptide in human serum pool (LC-MS); format: in vitro ADME; conditions: for Stability in human serum (undegraded portion/time): Table 10, 2 h; for Stability in human serum (undegraded portion/time) / remaining at 1 h, 1 μM / remaining at 4 h, 1 μM: 37° C.; for remaining at 1 h, 1 μM: Table 8; for remaining at 1 h, 1 μM / remaining at 4 h, 1 μM: human serum pool; for remaining at 4 h, 1 μM: Table 9; for Stability in serum (in words): human serum
Protocol: A DMSO solution of the thioether macrocyclic peptide to be evaluated was dissolved in a human serum pool to give a concentration of 1 μM. The human serum pool containing the thioether macrocyclic peptide thus prepared was incubated at 37° C.
After an elapse of the evaluation time, the human serum pool containing the thioether macrocyclic peptide was placed on ice and a peptide serving as an internal standard was added and mixed to give a concentration of 1 μM. The resulting mixture was added to a solid-phase extraction column (Hyper Sep SPE column, Thermo Scientific), washed with a 5% aqueous acetonitrile solution containing 0.1% TFA, and then purified by eluting with a 70% aqueous acetonitrile solution containing 0.1% TFA.
The molecular weight of the purified product was analyzed using LC-MS and the cleavage site in the serum was identified. In addition, the thioether macrocyclic peptide which had remained without being cleaved was quantitatively determined by comparing an amount relative to the internal standard at every incubation time.

c-Met-Fc = c-Met-Fc (Homo sapiens, UniProt P08581); assay: Binding ability by surface plasmon resonance (SPR, Biacore); conditions: for kon: read-out: ka
Protocol: Binding ability of the thioether macrocyclic peptide was evaluated by SPR measurement using Biacore (GE Healthcare).
As a sensor chip, Sensor Chip CM5 was used and an anti-IgG antibody was immobilized on a measurement lane and a control lane by using Human Antibody Capture Kit.
On the measurement lane was immobilized c-Met-Fc, while on the control lane was immobilized Fc protein.
As a running buffer, HBS-EP+ buffer containing 0.1% DMSO was used and a dissociation constant of the thioether macrocyclic peptide was calculated at 5 different concentrations by using the single-kinetics method.

human HuCCT1 cells = assay: Cell migration of HuCCT1 cells on pore-containing plate; format: cell-based; conditions: Table 13
Protocol: In addition, human HuCCT1 cells were seeded on a pore-containing plate and cultured in a medium mixed with each of the dimeric peptides to evaluate activation of cell migration ability.

c-Met = target: T1, c-Met (Homo sapiens, UniProt P08581); assay: Activity of dimeric peptide by ELISA (c-Met phosphorylation level in EHMES-1 cells); format: cell-based
T1 construct: endogenous in cells; host or cells: EHMES-1 (human mesothelioma)
Protocol: Each dimeric peptide was added to human EHMES-1 cells and the mixture was incubated for 10 minutes to stimulate the cells.
As a control experiment, a recombinant human HGF protein was added and the mixture was incubated for 10 minutes to stimulate cells.
A phosphorylation level of c-Met was quantitatively analyzed using ELISA.

[2] = Table 11, monomer and dimeric peptides

Sequence of c-Met-Fc (P08581 with tags, fused parts or gaps limits assumed): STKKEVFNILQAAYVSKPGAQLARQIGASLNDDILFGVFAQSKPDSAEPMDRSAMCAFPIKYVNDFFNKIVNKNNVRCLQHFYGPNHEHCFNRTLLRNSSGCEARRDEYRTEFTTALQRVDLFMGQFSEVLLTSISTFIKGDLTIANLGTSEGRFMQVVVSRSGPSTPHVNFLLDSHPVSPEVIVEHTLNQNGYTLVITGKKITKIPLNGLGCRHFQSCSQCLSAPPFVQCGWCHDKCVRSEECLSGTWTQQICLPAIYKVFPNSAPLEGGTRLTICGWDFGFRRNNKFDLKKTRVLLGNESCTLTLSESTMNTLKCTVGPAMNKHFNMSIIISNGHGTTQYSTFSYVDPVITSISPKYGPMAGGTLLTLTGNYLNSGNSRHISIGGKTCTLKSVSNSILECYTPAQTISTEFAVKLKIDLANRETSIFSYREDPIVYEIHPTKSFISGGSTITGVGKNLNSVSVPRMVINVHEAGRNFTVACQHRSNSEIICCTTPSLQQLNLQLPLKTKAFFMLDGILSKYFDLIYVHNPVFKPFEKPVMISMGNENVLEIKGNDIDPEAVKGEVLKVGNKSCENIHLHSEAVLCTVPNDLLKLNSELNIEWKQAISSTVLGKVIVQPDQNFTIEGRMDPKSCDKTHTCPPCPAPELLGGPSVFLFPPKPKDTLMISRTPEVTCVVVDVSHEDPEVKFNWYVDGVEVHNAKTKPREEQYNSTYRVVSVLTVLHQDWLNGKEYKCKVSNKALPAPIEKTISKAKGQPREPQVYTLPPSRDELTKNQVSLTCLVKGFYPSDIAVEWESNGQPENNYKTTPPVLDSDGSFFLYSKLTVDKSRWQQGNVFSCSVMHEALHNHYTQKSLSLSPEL
Sequence of c-Met-Fc (P08581 25-307 limits assumed): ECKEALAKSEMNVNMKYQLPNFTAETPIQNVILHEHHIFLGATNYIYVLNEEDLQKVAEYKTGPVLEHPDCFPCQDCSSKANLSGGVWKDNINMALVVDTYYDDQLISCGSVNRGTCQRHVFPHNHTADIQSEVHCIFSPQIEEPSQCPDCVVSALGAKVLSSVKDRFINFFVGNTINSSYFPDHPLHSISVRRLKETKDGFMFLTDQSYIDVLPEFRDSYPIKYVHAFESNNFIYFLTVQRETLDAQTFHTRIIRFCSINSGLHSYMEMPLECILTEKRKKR
T1 sequence (P08581 25-1390): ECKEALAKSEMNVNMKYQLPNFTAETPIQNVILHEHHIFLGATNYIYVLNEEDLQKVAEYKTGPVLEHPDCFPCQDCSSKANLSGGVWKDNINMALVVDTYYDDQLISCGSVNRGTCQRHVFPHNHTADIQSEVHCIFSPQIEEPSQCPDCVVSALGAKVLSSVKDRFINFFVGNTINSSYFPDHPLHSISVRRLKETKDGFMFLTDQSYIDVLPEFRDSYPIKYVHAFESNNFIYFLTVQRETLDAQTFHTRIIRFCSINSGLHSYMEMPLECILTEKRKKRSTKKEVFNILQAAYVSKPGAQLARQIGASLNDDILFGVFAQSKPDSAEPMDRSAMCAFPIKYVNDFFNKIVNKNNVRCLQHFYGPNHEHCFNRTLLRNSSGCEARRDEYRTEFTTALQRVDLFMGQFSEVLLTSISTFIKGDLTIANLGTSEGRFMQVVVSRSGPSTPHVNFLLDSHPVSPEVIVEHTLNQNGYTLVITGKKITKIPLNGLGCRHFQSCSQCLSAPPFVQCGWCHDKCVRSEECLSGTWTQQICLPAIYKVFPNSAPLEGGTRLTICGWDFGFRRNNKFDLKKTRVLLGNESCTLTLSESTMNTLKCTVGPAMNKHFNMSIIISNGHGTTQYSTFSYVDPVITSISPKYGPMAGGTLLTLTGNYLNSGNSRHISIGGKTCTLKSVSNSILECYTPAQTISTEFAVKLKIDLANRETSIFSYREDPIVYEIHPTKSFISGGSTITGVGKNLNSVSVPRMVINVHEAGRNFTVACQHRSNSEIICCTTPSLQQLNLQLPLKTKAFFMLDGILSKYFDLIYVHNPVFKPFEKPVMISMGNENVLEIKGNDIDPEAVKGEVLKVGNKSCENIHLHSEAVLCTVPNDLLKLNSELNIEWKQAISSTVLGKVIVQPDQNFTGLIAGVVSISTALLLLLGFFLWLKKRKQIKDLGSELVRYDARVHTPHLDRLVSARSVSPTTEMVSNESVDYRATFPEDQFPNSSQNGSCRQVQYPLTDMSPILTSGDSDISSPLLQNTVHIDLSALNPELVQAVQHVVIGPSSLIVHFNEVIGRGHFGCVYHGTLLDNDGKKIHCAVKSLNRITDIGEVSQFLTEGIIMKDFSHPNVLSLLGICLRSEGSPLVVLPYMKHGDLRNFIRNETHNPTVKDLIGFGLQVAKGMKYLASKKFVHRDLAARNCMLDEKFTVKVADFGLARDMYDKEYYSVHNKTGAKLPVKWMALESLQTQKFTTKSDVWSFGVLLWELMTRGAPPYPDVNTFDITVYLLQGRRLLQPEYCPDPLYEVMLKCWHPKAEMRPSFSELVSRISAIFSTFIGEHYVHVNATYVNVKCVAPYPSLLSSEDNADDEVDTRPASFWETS

Molecule	remaining at 1 h, 1 μM [1]	kd (c-Met-Fc; Table 8, c-Met-Fc)	kon (c-Met-Fc; Table 8, c-Met-Fc)	Stability in serum (in words) [1]	also measured
C[C@@H]1NC(=O)[C@H](Cc2ccc(O)cc2)NC(=O)[C@H](Cc2ccc(O)cc2)NC(=O)[C@H](Cc2c[nH]c3ccccc23)NC(=O)[C@@H](Cc2ccc(O)cc2)NC(=O)CSC[C@@H](C(=O)NCC(N)=O)NC(=O)[C@@H]2CCCN2C(=O)[C@H](Cc2ccccc2)NC(=O)[C@H](C)NC(=O)[C@H](CCCCN)NC(=O)[C@H](Cc2ccc(O)cc2)NC(=O)[C@H]([C@@H](C)O)NC(=O)[C@H](CCC(N)=O)NC(=O)[C@H](CC(=O)O)NC(=O)[C@H](Cc2c[nH]c3ccccc23)NC1=O [Peptide D5-4] ({CH2CO}-[dY]WYYAWDQTYKAFPCG-NH2; thioether N-15)					Stability in human serum (undegraded portion/time) [1]: 97%/2 h; Kd (c-Met-Fc; Table 10, c-Met-Fc): 4.6 nM; kon (c-Met-Fc; Table 10, c-Met-Fc): 4.5e+06 M⁻¹ s⁻¹
CC[C@H](C)[C@@H]1NC(=O)[C@H](Cc2ccc(O)cc2)NC(=O)CSC[C@@H](C(=O)NCC(N)=O)NC(=O)[C@H]([C@@H](C)O)NC(=O)[C@H]([C@@H](C)CC)NC(=O)[C@H](Cc2ccccc2)NC(=O)[C@H](CCCNC(=N)N)NC(=O)[C@H](Cc2c[nH]c3ccccc23)NC(=O)[C@H](CC(N)=O)NC(=O)[C@@H]2CCCN2C(=O)[C@H](CO)NC(=O)[C@H](CC(N)=O)NC(=O)[C@H](Cc2ccccc2)NC(=O)[C@H](CCC(=O)O)NC(=O)[C@H](CC(N)=O)NC(=O)[C@H](Cc2c[nH]c3ccccc23)NC(=O)[C@H](CO)NC1=O [Peptide L5-2] ({CH2CO}-YISWNEFNSPNWRFITCG-NH2; thioether N-17)					Stability in human serum (undegraded portion/time) [1]: 71%/2 h; Kd (c-Met-Fc; Table 10, c-Met-Fc): 5.4 nM; kon (c-Met-Fc; Table 10, c-Met-Fc): 2.3e+06 M⁻¹ s⁻¹
D4-3 Bis-MAL-PEG11: dimeric peptide: two D4-3 macrocycles linked through C-terminal Cys by Bis-MAL-PEG11 linker ({CH2CO}-[dY]RQFNRRTHEVWNLDCGC; thioether N-16; not fully specified (residue 18); also: dimer: two copies joined by Bis-MAL-PEG11, linker at 18 via Bis-MAL-PEG11, other end not in the chain)					Cell migration (human HuCCT1 cells): Activate; ka (c-Met-Fc; [2]): 1.2 10^6 M^−1s^−1; kd (c-Met-Fc; [2]): 0.11 10^−2 s^−1; Activity (c-Met phosphorylation level by ELISA) (c-Met; Table 12, EHMES-1 cells, 10 minutes stimulation): High; c-Met phosphorylation (c-Met; Table 13): Promote

Now from value to molecule, other results behind:

remaining at 1 h, 1 μM [1]	kd (c-Met-Fc; Table 8, c-Met-Fc)	kon (c-Met-Fc; Table 8, c-Met-Fc)	Stability in serum (in words) [1]	Molecule	also measured
5.4%	1.0 10^−2 s^−1	710000 M⁻¹ s⁻¹		CC(C)C[C@@H]1NC(=O)[C@H](CC(N)=O)NC(=O)[C@H](Cc2c[nH]c3ccccc23)NC(=O)[C@H](C(C)C)NC(=O)[C@H](CCC(=O)O)NC(=O)[C@H](Cc2c[nH]cn2)NC(=O)[C@H]([C@@H](C)O)NC(=O)[C@H](CCCNC(=N)N)NC(=O)[C@H](CCCNC(=N)N)NC(=O)[C@H](CC(N)=O)NC(=O)[C@H](Cc2ccccc2)NC(=O)[C@H](CCC(N)=O)NC(=O)[C@H](CCCNC(=N)N)N(C)C(=O)[C@@H](Cc2ccc(O)cc2)NC(=O)CSC[C@@H](C(=O)NCC(N)=O)NC(=O)[C@H](CC(=O)O)NC1=O [Peptide N2] ({CH2CO}-[dY][NMeR]QFNRRTHEVWNLDCG-NH2; thioether N-16; C-terminus assumed)	
21.1%	0.96 10^−2 s^−1	120000 M⁻¹ s⁻¹		CC(C)C[C@@H]1NC(=O)[C@H](CC(N)=O)NC(=O)[C@H](Cc2c[nH]c3ccccc23)NC(=O)[C@H](C(C)C)NC(=O)[C@H](CCC(=O)O)NC(=O)[C@H](Cc2c[nH]cn2)NC(=O)[C@H]([C@@H](C)O)NC(=O)[C@H](CCCNC(=N)N)NC(=O)[C@H](CCCNC(=N)N)NC(=O)[C@H](CC(N)=O)NC(=O)[C@H](Cc2ccccc2)N(C)C(=O)[C@H](CCC(N)=O)NC(=O)[C@H](CCCNC(=N)N)NC(=O)[C@@H](Cc2ccc(O)cc2)NC(=O)CSC[C@@H](C(=O)NCC(N)=O)NC(=O)[C@H](CC(=O)O)NC1=O [Peptide N4] ({CH2CO}-[dY]RQ[NMeF]NRRTHEVWNLDCG-NH2; thioether N-16; C-terminus assumed)	
85%	0.41 10^−2 s^−1	120000 M⁻¹ s⁻¹	drastically improved	CC(C)C[C@@H]1NC(=O)[C@H](CC(N)=O)NC(=O)[C@H](Cc2c[nH]c3ccccc23)NC(=O)[C@H](C(C)C)NC(=O)[C@H](CCC(=O)O)NC(=O)[C@H](Cc2c[nH]cn2)NC(=O)[C@H]([C@@H](C)O)NC(=O)[C@H](CCCNC(=N)N)NC(=O)[C@H](CCCNC(=N)N)N(C)C(=O)[C@H](CC(N)=O)NC(=O)[C@H](Cc2ccccc2)NC(=O)[C@H](CCC(N)=O)NC(=O)[C@H](CCCNC(=N)N)NC(=O)[C@@H](Cc2ccc(O)cc2)NC(=O)CSC[C@@H](C(=O)NCC(N)=O)NC(=O)[C@H](CC(=O)O)NC1=O [Peptide N6] ({CH2CO}-[dY]RQFN[NMeR]RTHEVWNLDCG-NH2; thioether N-16; C-terminus assumed)	remaining at 4 h, 1 μM [1]: 67%; Binding ability (in words) (c-Met-Fc): do not show marked deterioration; ka (c-Met-Fc; Table 9, c-Met-Fc): 1.2 10^5 M^−1s^−1; kd (c-Met-Fc; Table 9, c-Met-Fc): 0.41 10^−2s^−1
92%	6.9 10^−2 s^−1	53000 M⁻¹ s⁻¹	drastically improved	CC(C)C[C@@H]1NC(=O)[C@H](CC(N)=O)NC(=O)[C@H](Cc2c[nH]c3ccccc23)NC(=O)[C@H](C(C)C)NC(=O)[C@H](CCC(=O)O)NC(=O)[C@H](Cc2c[nH]cn2)NC(=O)[C@H]([C@@H](C)O)NC(=O)[C@H](CCCNC(=N)N)N(C)C(=O)[C@H](CCCNC(=N)N)NC(=O)[C@H](CC(N)=O)NC(=O)[C@H](Cc2ccccc2)NC(=O)[C@H](CCC(N)=O)NC(=O)[C@H](CCCNC(=N)N)NC(=O)[C@@H](Cc2ccc(O)cc2)NC(=O)CSC[C@@H](C(=O)NCC(N)=O)NC(=O)[C@H](CC(=O)O)NC1=O [Peptide N7] ({CH2CO}-[dY]RQFNR[NMeR]THEVWNLDCG-NH2; thioether N-16; C-terminus assumed)	Binding ability (in words) (c-Met-Fc): do not show marked deterioration
81%		27000 M⁻¹ s⁻¹	drastically improved	CC(C)C[C@@H]1NC(=O)[C@H](CC(N)=O)NC(=O)[C@H](Cc2c[nH]c3ccccc23)NC(=O)[C@H](C(C)C)NC(=O)[C@H](CCC(=O)O)NC(=O)[C@H](Cc2c[nH]cn2)NC(=O)[C@H]([C@@H](C)O)N(C)C(=O)[C@H](CCCNC(=N)N)NC(=O)[C@H](CCCNC(=N)N)NC(=O)[C@H](CC(N)=O)NC(=O)[C@H](Cc2ccccc2)NC(=O)[C@H](CCC(N)=O)NC(=O)[C@H](CCCNC(=N)N)NC(=O)[C@@H](Cc2ccc(O)cc2)NC(=O)CSC[C@@H](C(=O)NCC(N)=O)NC(=O)[C@H](CC(=O)O)NC1=O [Peptide N8] ({CH2CO}-[dY]RQFNRR[NMeT]HEVWNLDCG-NH2; thioether N-16; C-terminus assumed)	
4.5%		78000 M⁻¹ s⁻¹		CC(C)C[C@@H]1NC(=O)[C@H](CC(N)=O)N(C)C(=O)[C@H](Cc2c[nH]c3ccccc23)NC(=O)[C@H](C(C)C)NC(=O)[C@H](CCC(=O)O)NC(=O)[C@H](Cc2c[nH]cn2)NC(=O)[C@H]([C@@H](C)O)NC(=O)[C@H](CCCNC(=N)N)NC(=O)[C@H](CCCNC(=N)N)NC(=O)[C@H](CC(N)=O)NC(=O)[C@H](Cc2ccccc2)NC(=O)[C@H](CCC(N)=O)NC(=O)[C@H](CCCNC(=N)N)NC(=O)[C@@H](Cc2ccc(O)cc2)NC(=O)CSC[C@@H](C(=O)NCC(N)=O)NC(=O)[C@H](CC(=O)O)NC1=O [Peptide N13] ({CH2CO}-[dY]RQFNRRTHEVW[NMeN]LDCG-NH2; thioether N-16; C-terminus assumed)	
12%	1.0 10^−2 s^−1	980000 M⁻¹ s⁻¹		CC(C)C[C@@H]1NC(=O)[C@H](CC(N)=O)NC(=O)[C@H](Cc2c[nH]c3ccccc23)NC(=O)[C@H](C(C)C)NC(=O)[C@H](CCC(=O)O)NC(=O)[C@H](Cc2c[nH]cn2)NC(=O)[C@H]([C@@H](C)O)NC(=O)[C@H](CCCNC(=N)N)NC(=O)[C@H](CCCNC(=N)N)NC(=O)[C@H](CC(N)=O)NC(=O)[C@H](Cc2ccccc2)NC(=O)[C@H](CCC(N)=O)NC(=O)[C@H](CCCNC(=N)N)NC(=O)[C@@H](Cc2ccc(O)cc2)NC(=O)CSC[C@@H](C(=O)NCC(N)=O)N(C)C(=O)[C@H](CC(=O)O)NC1=O [Peptide N16] ({CH2CO}-[dY]RQFNRRTHEVWNLD[NMeC]G-NH2; thioether N-16; C-terminus assumed)	remaining at 4 h, 1 μM [1]: < 12%; ka (c-Met-Fc; Table 9, c-Met-Fc): 9.8 10^5 M^−1s^−1; kd (c-Met-Fc; Table 9, c-Met-Fc): 1.0 10^−2s^−1
